From US20250144253A1, “3-((3-([1,1'-BIPHENYL]-3-YLMETHOXY)PHENOXY)METHYL)BENZONITRILE DERIVATIVES AND THE USE THEREOF” (HELMHOLTZ-ZENTRUM DRESDEN-ROSSENDORF E.V., priority 2021, published 2025)
≈ marks a conversion by molar mass, not a printed value.

Legend:
PD-L1 = biological target: T1, PD-L1 (Homo sapiens, UniProt Q9NZQ7); test: Saturation binding assay of Cu-64 labelled radioligands on PC3 hPSCA PD-L1 overexpressing cell line; conditions: PC3 hPSCA PD-L1 cells, n = 3; for Kd: 4° C., 90 min
T1 construct: expressed in transfected cells; host or cells: PC3 hPSCA PD-L1 overexpressing cell line
T1 sequence (Q9NZQ7 19-290): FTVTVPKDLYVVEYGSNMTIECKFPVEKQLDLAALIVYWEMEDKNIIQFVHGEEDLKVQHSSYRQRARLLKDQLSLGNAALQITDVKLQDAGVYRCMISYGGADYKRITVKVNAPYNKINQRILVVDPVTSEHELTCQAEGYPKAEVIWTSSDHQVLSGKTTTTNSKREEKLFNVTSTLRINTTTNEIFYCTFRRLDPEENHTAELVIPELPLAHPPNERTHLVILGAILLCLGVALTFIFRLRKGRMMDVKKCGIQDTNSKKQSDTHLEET
Protocol: Experiments were performed on a PC3 hPSCA PD-L1 overexpressing cell line in triplicates and three experiments were performed per compound, resulting in a 3×3 data set per compound (see FIGS. 1 to 3). The saturated, upper curve represents the total binding of the compound whereas the lower, linear curve represents the unspecific binding. The specific binding is represented as the difference between total and unspecific binding.
In the following the procedure for saturation binding assay is explained: The respective Cu-64 labeled compound is prepared freshly for each experiment. The cells with PD-L1 expression were prepared in 48-well plates. Three rows in the plates were designated for determination of total binding and one row for determination of the unspecific binding. For the latter, the cells are pretreated for 15 min with a 300 fold excess of a literature known PD-L1 inhibitor with high binding to PD-L1. […] Protein determination takes place at the next day and provides the Bmax value (total density of PD-L1 receptors on cell surface). Plotting and graphical interpretation provides curves and Kd-values from graph fitting.

[1] = Distribution coefficient log D at pH 7.4; format: physicochemical; conditions: pH 7.4, n = 3
Text: In general, the more negative the values of log D the better the water solubility.

[2] = Water solubility by adding water in 1 μl steps to 1 mg compound; format: physicochemical; conditions: thermodynamic from solid
Protocol: The water solubility of compounds 85-90 was determined by weighing 1 mg of the cold compound in an Eppendorf-tube and adding water in 1 μl steps. The addition was performed until everything was dissolved. The value in mg/μl was converted to […].

PD-L1 tumor [3] = test: PET imaging in PD-L1 overexpressing mouse xenograft model; format: in vivo
Protocol: Compound 119 was tested in a PD-L1 overexpressing mouse xenograft model. PET images were recorded 2 h, 15 h and 24 h post injection (see FIG. 4). The experiments were performed with compound 119 in duplicates (two mice for each timepoint). About 10 MBq of radiolabelled compound were injected intravenously in the tail vain of an alive mouse. At 2 hrs p.i. the first image was recorded. […] At 5 hrs p.i. the second image was recorded. High uptake in liver; high uptake in colon and intestine and increased uptake in PD-L1 tumor have been observed. At 24 hrs p.i. the third image was recorded. Moderate uptake in liver, low uptake in intestine and moderate uptake in the PD-L1 positive tumor has been observed.

PD-L1 tumor [4] = test: as above; format: in vivo; conditions: 5 hrs p.i. (second image)

Compound | Kd (PD-L1) [nM] | Bmax (receptor density) (PD-L1) | Log D7.4 [1] | solubility [2] [mg/mL] | further results
Cc1c(COc2cc(OCc3cncc(C#N)c3)c(CN(C)CC(=O)NCC(S(=O)(=O)O)S(=O)(=O)O)cc2Br)cccc1-c1cccc(OCc2cn(CCCN3CCN(C(=O)CN4CCN(CC(=O)O)CCN(CC(=O)O)CCN(CC(=O)O)CC4)CC3)nn2)c1C [Compound 122] | 135 ± 2.34 | 8.28 ± 0.13 pmol/mg | −3.48 ± 0.03 | – | –
CN(CC(=O)NCC(S(=O)(=O)O)S(=O)(=O)O)Cc1cc(Cl)c(OCc2cccc(-c3cccc(OCc4cn(CCCC5CCN(C(=O)CN6CCN(CC(=O)O)CCN(CC(=O)O)CCN(CC(=O)O)CC6)CC5)nn4)c3)c2Br)cc1OCc1cncc(S(C)(=O)=O)c1 [Compound 115] | 585 ± 39.6 | 11.7 ± 0.54 pmol/mg | −2.73 ± 0.04 | – | –
Cc1c(COc2cc(OCc3cncc(S(C)(=O)=O)c3)c(CN(C)CC(=O)NCC(S(=O)(=O)O)S(=O)(=O)O)cc2Cl)cccc1-c1cccc(OCc2cn([C@@H]3O[C@H](CF)[C@@H](O)[C@H](O)[C@H]3O)nn2)c1C [Compound 90, 2-(2-((5-Chloro-4-((3′-((1-((2R,3R,4S,5S,6S)-6-(fluoromethyl)-3,4,5-trihydroxytetrahydro-2H-pyran-2-yl)-1H-1,2,3-triazol-4-yl)methoxy)-2,2′-dimethyl-[1,1′-biphenyl]-3-yl)methoxy)-2-((5-(methylsulfonyl)pyridin-3-yl)methoxy)benzyl)(methyl)amino)acetamido)ethane-1,1-disulfonic acid] | – | – | – | 115 (≈ 109 mM) | –
CN(CC(=O)NCC(S(=O)(=O)O)S(=O)(=O)O)Cc1cc(Cl)c(OCc2cccc(-c3cccc(OCc4cn(CCCF)nn4)c3)c2Br)cc1OCc1cncc(S(C)(=O)=O)c1 [Compound 85, 2-(2-((4-((2-Bromo-3′-((1-(3-fluoropropyl)-1H-1,2,3-triazol-4-yl)methoxy)-[1,1′-biphenyl]-3-yl)methoxy)-5-chloro-2-((5-(methylsulfonyl)pyridin-3-yl)methoxy)benzyl)(methyl)amino)acetamido)ethane-1,1-disulfonic acid] | – | – | – | 80 (≈ 79.7 mM) | –
Cc1c(COc2cc(OCc3cncc(S(C)(=O)=O)c3)c(CN[C@@H](CS(=O)(=O)O)C(=O)NCCS(=O)(=O)O)cc2Cl)cccc1-c1cccc(OCc2cn(CCCN3CCN(C(=O)[C@H](CS(=O)(=O)O)NC(=O)CC[C@H](C(=O)O)N4CCN(CC(=O)O)CCN(CC(=O)O)CC4)CC3)nn2)c1C [Compound 222] | – | – | −3.80 ± 0.02 | – | –
Cc1c(COc2cc(OCc3cncc(C#N)c3)c(CN(C)CC(=O)NCC(S(=O)(=O)O)S(=O)(=O)O)cc2I)cccc1-c1cccc(OCc2cn(CCCN3CCN(C(=O)CN4CCN(CC(=O)O)CCN(CC(=O)O)CCN(CC(=O)O)CC4)CC3)nn2)c1C [Compound 123] | 300 ± 20.6 | 49.6 ± 1.27 pmol/mg | −2.89 ± 0.02 | – | –
Cc1c(COc2cc(OCc3cncc(C#N)c3)c(CN(C)CC(=O)NCC(S(=O)(=O)O)S(=O)(=O)O)cc2Cl)cccc1-c1cccc(OCc2cn(CCCN3CCN(C(=O)CN4CCN(CC(=O)O)CCN(CC(=O)O)CCN(CC(=O)O)CC4)CC3)nn2)c1C [Compound 121] | 128 ± 13.2 | 20.9 ± 2.17 pmol/mg | −2.99 ± 0.02 | – | –
Cc1c(COc2cc(OCc3cncc(S(C)(=O)=O)c3)c(CN(C)CC(=O)NCC(S(=O)(=O)O)S(=O)(=O)O)cc2Cl)cccc1-c1cccc(OCc2cn(CCCF)nn2)c1C [Compound 88, 2-(2-((5-Chloro-4-((3′-((1-(3-fluoropropyl)-1H-1,2,3-triazol-4-yl)methoxy)-2,2′-dimethyl-[1,1′-biphenyl]-3-yl)methoxy)-2-((5-(methylsulfonyl)pyridin-3-yl)methoxy)benzyl)(methyl)amino)acetamido)ethane-1,1-disulfonic acid] | – | – | – | 85 (≈ 89.1 mM) | –
Cc1c(COc2cc(OCc3cncc(S(C)(=O)=O)c3)c(CN(C)CC(=O)NCC(S(=O)(=O)O)S(=O)(=O)O)cc2Cl)cccc1-c1cccc(OCc2cn(CCCC3CCN(C(=O)CN4CCN(CC(=O)O)CCN(CC(=O)O)CCN(CC(=O)O)CC4)CC3)nn2)c1C [Compound 118] | 123 ± 11.7 | 13.5 ± 0.98 pmol/mg | −2.75 ± 0.04 | – | –
CN(CC(=O)NCC(S(=O)(=O)O)S(=O)(=O)O)Cc1cc(Cl)c(OCc2cccc(-c3cccc(OCc4cn([C@@H]5O[C@H](CO)[C@@H](O)[C@H](O)[C@H]5F)nn4)c3)c2Br)cc1OCc1cncc(S(C)(=O)=O)c1 [Compound 86, 2-(2-((4-((2-Bromo-3′-((1-((2R,3R,4S,5S,6R)-3-fluoro-4,5-dihydroxy-6-(hydroxymethyl)tetrahydro-2H-pyran-2-yl)-1H-1,2,3-triazol-4-yl)methoxy)-[1,1′-biphenyl]-3-yl)methoxy)-5-chloro-2-((5-(methylsulfonyl)pyridin-3-yl)methoxy)benzyl)(methyl)amino)acetamido)ethane-1,1-disulfonic acid] | – | – | – | 110 (≈ 99.2 mM) | –
Cc1c(COc2cc(OCc3cncc(S(C)(=O)=O)c3)c(CN(C)CC(=O)NCC(S(=O)(=O)O)S(=O)(=O)O)cc2Cl)cccc1-c1cccc(OCc2cn(CCOCCOCCN3CCN(C(=O)CN4CCN(CC(=O)O)CCN(CC(=O)O)CCN(CC(=O)O)CC4)CC3)nn2)c1C [Compound 120] | 71.3 ± 10.1 | 7.04 ± 0.42 pmol/mg | −3.50 ± 0.01 | – | –
Cc1c(COc2cc(OCc3cncc(S(C)(=O)=O)c3)c(CN(C)CC(=O)NCC(S(=O)(=O)O)S(=O)(=O)O)cc2Cl)cccc1-c1cccc(OCc2cn(CCCN3CCN(C(=O)CN4CCN(CC(=O)O)CCN(CC(=O)O)CCN(CC(=O)O)CC4)CC3)nn2)c1C [Compound 119] | 59.9 ± 4.63 | 5.43 ± 0.46 pmol/mg | −3.14 ± 0.02 | – | circulation in the blood pool (PD-L1 tumor [3]; 2 hrs p.i.): did still circulate in the blood pool; uptake in PD-L1 tumor (PD-L1 tumor [3]; 2 hrs p.i.): low; uptake in bladder and intestines (PD-L1 tumor [3]; 2 hrs p.i.): high; uptake in liver (PD-L1 tumor [3]; 2 hrs p.i., about 10 MBq i.v.): Moderate; uptake in intestine (PD-L1 tumor [3]; 24 hrs p.i.): low; uptake in liver (PD-L1 tumor [3]; 24 hrs p.i.): Moderate; uptake in the PD-L1 positive tumor (PD-L1 tumor [3]; 24 hrs p.i.): moderate; uptake in PD-L1 tumor (PD-L1 tumor [4]): increased; uptake in colon and intestine (PD-L1 tumor [4]): high; uptake in liver (PD-L1 tumor [4]): High
Cc1c(COc2cc(OCc3cncc(S(C)(=O)=O)c3)c(CN(C)CC(=O)NCC(S(=O)(=O)O)S(=O)(=O)O)cc2Cl)cccc1-c1cccc(OCc2cn([C@@H]3O[C@H](CO)[C@@H](O)[C@H](O)[C@H]3F)nn2)c1C [Compound 89, 2-(2-((5-Chloro-4-((3′-((1-((2R,3R,4S,5S,6R)-3-fluoro-4,5-dihydroxy-6-(hydroxymethyl)tetrahydro-2H-pyran-2-yl)-1H-1,2,3-triazol-4-yl)methoxy)-2,2′-dimethyl-[1,1′-biphenyl]-3-yl)methoxy)-2-((5-(methylsulfonyl)pyridin-3-yl)methoxy)benzyl)(methyl)amino)acetamido)ethane-1,1-disulfonic acid] | – | – | – | 120 (≈ 113 mM) | –
CN(CC(=O)NCC(S(=O)(=O)O)S(=O)(=O)O)Cc1cc(Cl)c(OCc2cccc(-c3cccc(OCc4cn([C@@H]5O[C@H](CF)[C@@H](O)[C@H](O)[C@H]5O)nn4)c3)c2Br)cc1OCc1cncc(S(C)(=O)=O)c1 [Compound 87, 2-(2-((4-((2-Bromo-3′-((1-((2R,3R,4S,5S,6S)-6-(fluoromethyl)-3,4,5-trihydroxytetrahydro-2H-pyran-2-yl)-1H-1,2,3-triazol-4-yl)methoxy)-[1,1′-biphenyl]-3-yl)methoxy)-5-chloro-2-((5-(methylsulfonyl)pyridin-3-yl)methoxy)benzyl)(methyl)amino)acetamido)ethane-1,1-disulfonic acid] | – | – | – | 115 (≈ 104 mM) | –
CN(CC(=O)NCC(S(=O)(=O)O)S(=O)(=O)O)Cc1cc(Cl)c(OCc2cccc(-c3cccc(OCc4cn(CCOCCOCCN5CCN(C(=O)CN6CCN(CC(=O)O)CCN(CC(=O)O)CCN(CC(=O)O)CC6)CC5)nn4)c3)c2Br)cc1OCc1cncc(S(C)(=O)=O)c1 [Compound 117] | 357 ± 66.5 | 5.85 ± 1.14 (n = 6) pmol/mg | −3.47 ± 0.10 | – | –
